Entries after “also recorded” stand apart in the source; their conditions may differ. Where two headings read alike, the source gives them in different places.
Tests used:
HDAC1A = settings: cited from earlier work
Arg2 = Arg2 protein expression in HAECs (Western blot); type: cell-based, human
Experimental: After 48 hrs of HAEC cells transfection, cells were lysed in ice cold RIPA lysis buffer consisting of 20 mM Tris-HCl at pH 7.5, 150 mM NaCl, 1 mM EDTA, 1 mM EGTA, 1% NP40, 1% sodium deoxycholate, 1 mM Na3VO4, 2.5 mM sodium pyrophosphate, 1 mM 3-glycerophosphate, 1 μg/mL leupeptin, and a 1:1000 diluted protease inhibitor cocktail (Sigma). For immunoprecipitation studies, whole cell lysate lysates were centrifuged at 14,000×g and supernatants were precleared by incubation with Protein A/G-agarose beads for 2 h at 4° C. with rocking. Agarose beads were then pelleted by centrifugation at 1,000×g. FLAG-Arg2 in precleared lysates were immunoprecipitated by incubation overnight at 4° C. with rocking following addition of anti-FLAG antibody (10 μl). Immune complexes were eluted in 2×SDS sample buffer by boiling for 5 minutes before loading into SDS-PAGE. Western blotting analysis was performed by transferring the SDS gel onto a PVDF membrane and visualized using secondary antibodies conjugated to alkaline phosphatases.

[1] = test system: aortic rings of wild-type mice; assay: Force tension (wire) myography, vascular relaxation of isolated wild-type mouse aortic rings; type: cell-based; parameters: Emax: dose or concentration left out as unconfirmed
Experimental: (§1) Mouse aorta was isolated and cleaned in ice-cold Krebs-Ringer-bicarbonate solution containing the following (in mM): 118.3 NaCl, 4.7 KCl, 1.6 CaCl2, 1.2 KH2 PO4, 25 NaHCO3, 1.2 MgSO4, and 11.1 dextrose. The aorta was immersed in a bath filled with constantly oxygenated Krebs buffer at 37° C. Equal size thoracic aortic rings (2 mm) were mounted using a microscope, ensuring no damage to the smooth muscle or endothelium. One end of the aortic rings was connected to a transducer, and the other to a micromanipulator. Aorta was passively stretched to an optimal resting tension using the micromanipulator, after which a dose of 60 mM KCl was administered, and repeated after a wash with Krebs buffer. After these washes, all vessels were allowed to equilibrate for 20-30 min in the presence of indomethacin (3 μM). Phenylephrine (1 μM) was administered to induce vasoconstriction. A dosedependent response (1 nM to 10 μM), with the muscarinic agonist, ACH or nitric oxide donor, SNP, was then performed as necessary. The responses were repeated in the presence of inhibitors. Relaxation responses were calculated as a percentage of tension following pre-constriction. Sigmoidal dose-response curves were fitted to data with the minimum constrained to 0. Two to four rings were isolated from each animal and the number of animals in each group (n) was 6.

[2] = test system: aortic rings from Arg2−/− mice; assay: Force tension (wire) myography, vascular relaxation of aortic rings from Arg2-/- mice; type: cell-based, mouse; settings: Mus musculus, 18 h; read-out: Emax endothelium-dependent relaxation
Experimental: as §1

HDAC4, 5, 6, 7, and 8 = settings: cited from earlier work

Structure (SMILES)	IC50 (HDAC1A) [nM]	endothelial Arg2 expression, class-specific HDAC inhibitors (Arg2; MS275 2 μmol/L, CI994 1 μmol/L, MC1568 0.5 μmol/L, PC34051 100 nmol/L, MGCD0103 1 μmol/L)	endothelium-independent responses to SNP, dose-dependent vasorelaxation ([1]; MGCD0103, MLN4924 or both, FIG. 29B)	Ach response in WT aorta ([1]; MGCD0103 preincubation 48 hours)	Emax ([1]; Mus musculus, 18 h, read-out: Emax endothelial-dependent vascular relaxation (acetylcholine)) [%]	SNP-mediated (endothelium-independent) vasorelaxation versus vehicle-only control ([1]; TSA 200 nmol/L or MGCD0103 1 μmol/L, 18 hours)	Emax at 1 µM [2] [%]	endothelial Arg2 expression, class-specific HDAC inhibitors (Arg2)	activity to HDAC4, 5, 6, 7, and 8 (HDAC4, 5, 6, 7, and 8)
Cn1c(/C=C/C(=O)NO)ccc1/C=C/C(=O)c1cccc(F)c1 [MC1658]	100	no substantial effects	–	–	–	–	–	–	–
Nc1ccccc1NC(=O)c1ccc(CNc2nccc(-c3cccnc3)n2)cc1 [MGCD0103, Mocetinostat]	–	–	no significant differences	significant attenuation	42.7 ± 8.5	no significant difference; also recorded: unaffected	62.4 ± 16.5	upregulate	selectivity against HDAC2, 3, and 11, and no
